Test results from paper PMC7142633, “Impact of B-Ring Substitution and Acylation with Hydroxy Cinnamic Acids on the Inhibition of Porcine α-Amylase by Anthocyanin-3-Glycosides” (Foods, 2020).
Where two headings read alike, the source gives them in different places. Marks after values point to notes of the source that are not given here.

What was measured:
[1] = molecular target: T1, α-amylase from porcine pancreas (Sus scrofa, UniProt P00690); experiment: α-amylase enzyme activity assay, GalG2CNP conversion, UV/Vis detection of CNP at 405 nm; assay type: biochemical; details: for IC50: read-out: IC50 (Cheng−Prussoff, Equation (9)); for Kmapp / vmaxapp: Michaelis Menten fit
T1 construct: A saline suspension of α-amylase from porcine pancreas; purchased Sigma Aldrich (Steinheim, Germany) Lot #SLBN9170V (catalogue number not given); host or cells: porcine pancreas (tissue-derived)
T1 sequence (P00690 16-511): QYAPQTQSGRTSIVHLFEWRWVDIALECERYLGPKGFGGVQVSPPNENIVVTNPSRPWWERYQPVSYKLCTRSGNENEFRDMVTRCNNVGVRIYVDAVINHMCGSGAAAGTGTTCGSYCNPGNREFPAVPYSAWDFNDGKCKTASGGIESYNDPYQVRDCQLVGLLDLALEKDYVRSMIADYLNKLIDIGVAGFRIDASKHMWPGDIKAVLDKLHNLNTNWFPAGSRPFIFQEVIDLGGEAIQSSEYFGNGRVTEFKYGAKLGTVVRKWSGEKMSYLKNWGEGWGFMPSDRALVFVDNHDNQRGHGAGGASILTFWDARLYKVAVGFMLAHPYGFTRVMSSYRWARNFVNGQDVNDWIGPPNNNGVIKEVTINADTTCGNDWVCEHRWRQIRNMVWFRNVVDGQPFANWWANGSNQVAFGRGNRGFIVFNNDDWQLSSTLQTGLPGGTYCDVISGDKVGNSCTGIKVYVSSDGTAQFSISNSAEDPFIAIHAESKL
Description: The enzyme activity assay, […], was established by Homoki and co-workers and already used by the authors to evaluate the inhibitory strength of different phenolic structures. To enable the evaluation of the result obtained in the present study compared to the non-anthocyanin phenolics investigated previously, the assay conditions were identical. In short, to 12 different GalG2CNP concentrations ([S] = 0−2000 µM) in MES^+ buffer, inhibitor [I] and 50 µL enzyme solution (c = 1.51 units/~100 pM, on the basis of supplier information) were mixed in a microtiter plate (Greiner BioOne, Frickenhausen, Germany; transparent, F-bottom). For blanks, the enzyme solution was substituted with MES^+ buffer. The final volume per well was 250 µL. To quantify the reaction product, a linear calibration with eight different CNP concentrations in the range of 0−35 µM was performed for each plate. Dilutions of the anthocyanin stock solutions (0.1% HCl) were equilibrated at pH 6.1 for one hour. Final inhibitor concentrations were limited due to its strong absorption at 405 nm to 12.5, 25, and 50 µM. For each anthocyanin structure, the assay was conducted on two to three different days with freshly prepared stocks of substrate, enzyme, and inhibitor.
In addition to the Michaelis Menten constant (Km) and the maximal conversion rate (vmax) values (Table S1), inhibition constants (Kic, Kiu) were calculated by fitting the data by two approaches: (i) According to the mixed inhibition equation (Equation (4)) or competitive inhibition equation (Equation (5)), applying an optimal global fit containing data from all inhibitor concentrations including the control ([I] = 0 µM); and (ii) by an independent fit according to the Michaelis Menten equation (Equation (6)), providing the apparent values Km^app and Vmax^app (Table S2) for each inhibitor concentration, which were then used to calculate the inhibition constants (Equations (7) and (8)). (4) v0= vmax/Km/[S] · (1+[I]/Kic)+(1+[I]/Kiu), (5) v0=vmax/Km/[S] · ( 1+[I]/Kic)+1, (6) v0=vmax · [S]/Km+[S], (7) Kic=vmax^app/Km^app · [I]/vmax/Km−vmax^app/Km^app, (8) Kiu=vmax^app · [I]/vmax− vmax^app.
The IC50 values of the different anthocyanins were derived from the inhibition constants for different substrate concentrations by the Cheng−Prusoff equation (Equation (9)). (9) IC50=(Km+[S])/Km/Kic+[S]/Kiu.
• KM: Michaelis Menten constant (µM) • vmax: Maximal conversion rate of the uninhibited reaction (µM/min) • v0: Observed conversion rate at given substrate and inhibitor concentration (µM/min) • [S]: Substrate concentration • [I]: Inhibitor concentration • Kic: Inhibitor constant, reflecting the competitive inhibition in the equation (µM) • Kiu: Inhibitor constant, reflecting the uncompetitive inhibition in the equation (µM) • vmax^app: Calculated maximal conversion rate, when the Michaelis Menten equation is used on an inhibited curve (µM/min) • Km^app: Calculated Michaelis Menten constant, when the Michaelis Menten equation is used on an inhibited curve (µM) • IC50: Half maximal inhibitory concentration (inhibitor concentration needed to achieve 50% inhibition; it is dependent on the substrate concentration) (µM)
For data analyses and calculations, Origin 2018b (OriginLab, software extension Enzyme Kinetics) was used. The Levenberg−Marquardt algorithm procedure was chosen for iteration. All assays were performed in two independent replicates at different dates. Values are expressed in arithmetic means ± average deviation (AD). The statistical significance and differences between groups were analyzed by one-way analysis of variance (ANOVA), followed by Tukey’s test. Differences were considered significant when p < 0.05. Data were processed using Microsoft Excel® (2010).

human salivary α-amylase = molecular target: human salivary α-amylase; parameters: method as in PMID 26471548; details: cited from earlier work
[2] = molecular target: porcine pancreatic α-amylase; parameters: method as in doi:10.1016/j.jff.2015.11.042; details: cited from earlier work
[3] = aqueous solution; cited from earlier work
[4] = molecular target: T1, α-amylase from porcine pancreas; experiment: Isothermal titration calorimetry, single injection, GalG2CNP conversion; assay type: biochemical; details: 100 µM inhibitor, 0.95 mM substrate, 37 °C
Description: To evaluate the inhibitory strength of 100 µM anthocyanin-3-glucosides and black carrot anthocyanins, GalG2CNP conversion to CNP was monitored by the released heat. According to the previous study, ITC measurements were carried out in a single injection experiment set-up on a MICROCALTM PEAQ-ITC calorimeter (S/N MAL1188053, Malvern Panalytical Almelo, Netherlands). Following an equilibration time of 10 min, 1 µL α-amylase (1 µM in 50 mM MES^+ buffer) was added to 0.95 mM of the substrate with or without 100 µM of the phenolic inhibitor in the cell (Vcell = 0.207 mL). The temperature was maintained at 37 °C and the sample was stirred at 750 rpm throughout. The feedback/gain mode was set to high. The resulting heat profile was transformed and the conversion rate was plotted against the substrate concentration [S] by an origin routine template provided by Malvern® for Origin version 7.

[5] = (i) Kic and Kiu by global fit, [S] 10 µM
[6] = (i) Kic and Kiu by global fit, [S] 100 µM
[7] = (i) Kic and Kiu by global fit, [S] 10^3 µM
[8] = (i) Kic and Kiu by global fit, [S] 10^6 µM
[9] = (i) global fit, mixed inhibition Equation (4), read-out: Kic
[10] = (i) global fit, mixed inhibition Equation (4), read-out: Kiu
[11] = (ii) Kic and Kiu by independent fit, [S] 10 µM
[12] = (ii) Kic and Kiu by independent fit, [S] 100 µM
[13] = (ii) Kic and Kiu by independent fit, [S] 10^3 µM
[14] = (ii) Kic and Kiu by independent fit, [S] 10^6 µM
[15] = (ii) independent Michaelis Menten fit (Equation (6)), calculation by Equation (7), read-out: Kic
[16] = (ii) independent Michaelis Menten fit (Equation (6)), calculation by Equation (8), read-out: Kiu
[17] = (ii) independent fit, Equations (7) and (8)
[18] = from apparent values, inhibitor c 25 µM, read-out: Kic
[19] = from apparent values, inhibitor c 25 µM, read-out: Kiu
[20] = from apparent values, inhibitor c 50 µM, read-out: Kic
[21] = from apparent values, inhibitor c 50 µM, read-out: Kiu
[22] = from apparent values, inhibitor c 12,5 µM, read-out: Kic
[23] = from apparent values, inhibitor c 12,5 µM, read-out: Kiu

| SMILES | IC50 [1, 5] [µM] | IC50 [1, 6] [µM] | IC50 [1, 7] [µM] | Kic/Kiu ([1]; (i) global fit, Equation (4)) | Ki [1, 9] [µM] | Ki [1, 10] [µM] | IC50 [1, 11] [µM] | IC50 [1, 12] [µM] | IC50 [1, 13] [µM] | IC50 [1, 14] [µM] | Ki [1, 15] [µM] | Ki [1, 16] [µM] | Kic/Kiu [1, 17] | Kmapp ([1]; inhibitor c 25 µM) [µM] | vmaxapp ([1]; inhibitor c 25 µM) | Kmapp ([1]; inhibitor c 50 µM) [µM] | vmaxapp ([1]; inhibitor c 50 µM) | Kmapp ([1]; inhibitor c 12,5 µM) [µM] | vmaxapp ([1]; inhibitor c 12,5 µM) | Ki [1, 18] [µM] | further results |
| --- | --- | --- | --- | --- | --- | --- | --- | --- | --- | --- | --- | --- | --- | --- | --- | --- | --- | --- | --- | --- | --- |
| OC[C@H]1O[C@@H](Oc2cc3c(O)cc(O)cc3[o+]c2-c2ccc(O)c(O)c2)[C@H](O)[C@@H](O)[C@@H]1O [Cyd-glc, cyanidin-3-glucoside] | 83 ± 11 | 97 ± 15 | 147 ± 36 | 0.45 ± 0.08 ***^a | 81 ± 10 | 184 ± 56 | 137 | 153 | 201 | 228 | 134 | 228 | 0.56 *^a | 285 | 0,74 ± 0,26 µM/min | 300 | 0,69 ± 0,21 µM/min | 244 | 0,79 ± 0,23 µM/min | 64 | IC50 [1, 8]: 184 ± 56 µM; Ki [1, 19]: 141 µM; Ki [1, 20]: 103 µM; Ki [1, 21]: 250 µM; Ki [1, 22]: 236 µM; Ki [1, 23]: 146 µM; Ki ([1]; mean over inhibitor c 12,5, 25, 50 µM (Supplementary 2), read-out: Kiu mean ± SD): 179 ± 62 µM; IC50 (human salivary α-amylase): 180 ± 20 µM; inhibition type (human salivary α-amylase): competitive inhibition type; IC50 [2]: 24 ± 3 µM; inhibition type [2]: competitive inhibition type; pKH [3]: 3.02 ± 0.06 |
| OC[C@H]1O[C@@H](Oc2cc3c(O)cc(O)cc3[o+]c2-c2cc(O)c(O)c(O)c2)[C@H](O)[C@@H](O)[C@@H]1O [Dpd-glc, delphinidin-3-glucoside] | 64 ± 25 | 77 ± 25 | 134 ± 1 | 0.34 ± 0.24 ^a | 62 ± 25 | 204 ± 68 | 65 ± 20 | 83 ± 24 | 167 ± 20 | 270 ± 32 | 63 ± 19 | 270 ± 33 | 0.26 ± 0.13 ^a | 273 ± 52 | 0,79 ± 0,09 µM/min | 335 ± 129 | 0,69 ± 0,03 µM/min | 247 ± 33 | 0,84 ± 0,10 µM/min | 63 ± 17 | Ki [1, 19]: 233 ± 25 µM; Ki [1, 20]: 60 ± 27 µM; Ki [1, 21]: 212 ± 87 µM; Ki [1, 22]: 66 ± 14 µM; Ki [1, 23]: 364 ± 13 µM; Ki ([1]; mean over inhibitor c 12,5, 25, 50 µM (Supplementary 2), read-out: Kic mean ± SD): 63 ± 3 µM; inhibitory strength by ITC (thermogram, Michaelis Menten plot) [4]: Mlv-3-glc > Cyd-3-glc > Dpd-3-glc~Peo-3-glc; pKH [3]: 2.36 ± 0.05 |
| OC[C@H]1O[C@@H](Oc2cc3c(O)cc(O)cc3[o+]c2-c2ccc(O)cc2)[C@H](O)[C@@H](O)[C@@H]1O [Plg-glc, pelargonidin-3-glucoside] | 58 ± 15 | 71 ± 20 | 117 ± 41 | 0.39 ± 0.05 ^a | 57 ± 15 | 151 ± 59 | 71 ± 2 | 84 ± 7 | 127 ± 31 | 158 ± 53 | 69 ± 1 | 158 ± 53 | 0.46 ± 0.13 ^a | 258 ± 13 | 0,58 ± 0,22 µM/min | 325 ± 42 | 0,53 ± 0,23 µM/min | 235 ± 2 | 0,65 ± 0,23 µM/min | 62 ± 7 | IC50 [1, 8]: 151 ± 59 µM; Ki [1, 19]: 126 ± 30 µM; Ki [1, 20]: 55 ± 19 µM; Ki [1, 21]: 163 ± 64 µM; Ki [1, 22]: 91 ± 22 µM; Ki [1, 23]: 187 ± 64 µM; pKH [3]: 2.98 ± 0.06 |
